# In ChEMBL document CHEMBL5136977, “Discovery of 1-(5-(1H-benzo[d]imidazole-2-yl)-2,4-dimethyl-1H-pyrrol-3-yl)ethan-1-one derivatives as novel and potent bromodomain and extra-terminal (BET) inhibitors with anticancer efficacy” (Eur J Med Chem, 2022):
# Assays:
# [1] = tested on: MV4-11; test: Induction of cell cycle arrest in human MV4-11 cells assessed as accumulation of cells at G0/G1 phase at 200 nM incubated for 48 hrs by propidium iodide staining based flow cytometric analysis (reference value: 65.71%); type: functional
# [2] = Induction of cell apoptosis in human MV4-11 cells assessed as early apoptotic cells at 500 nM incubated for 48 hrs by Annexin V-FITC/Propidium iodide staining based flow cytometry analysis (reference value: 1.42%); type: functional
# [3] = Metabolic stability in rat liver microsomes assessed as intrinsic clearance incubated for 1 hr by LC-MS/MS analysis; type: ADME, Microsome; details: read-out: CLH
# [4] = Induction of cell apoptosis in human MV4-11 cells assessed as late apoptotic cells at 200 nM incubated for 48 hrs by Annexin V-FITC/Propidium iodide staining based flow cytometry analysis (reference value: 1.99%); type: functional
# [5] = Clearance in Sprague-Dawley rat at 1 mg/kg, iv by LC-MS/MS analysis; type: ADME, organism-based; details: in vivo
# [6] = tested on: MV4-11; test: Antiproliferative activity against human MV4-11 cells assessed as cell growth inhibition incubated for 72 hrs by CellTiter-Glo assay; type: functional, cell-based; details: MV4-11, 72 h
# [7] = Induction of cell apoptosis in human MV4-11 cells assessed as […] cells at 1000 nM incubated for 48 hrs by Annexin V-FITC/Propidium iodide staining based flow cytometry analysis (reference value: 96.6%); type: functional
# [8] = tested on: MDA-MB-468; test: Antiproliferative activity against human MDA-MB-468 cells assessed as cell growth inhibition measured after 72 hrs by CellTiter-Glo assay; type: functional
# [9] = tested on: MV4-11; test: Induction of cell cycle arrest in human MV4-11 cells assessed as accumulation of cells at S phase at 100 nM incubated for 48 hrs by propidium iodide staining based flow cytometric analysis (reference value: 26.29%); type: functional
# [10] = Oral bioavailability in Sprague-Dawley rat at 10 mg/kg by LC-MS/MS analysis; type: ADME, organism-based; details: in vivo
# [11] = Metabolic stability in human liver assessed as intrinsic clearance incubated for 1 hr by LC-MS/MS analysis; type: ADME, tissue-based; details: read-out: CLH
smiles,measurement,setting,value
CC(=O)c1c(C)[nH]c(-c2nc3cc(N4CCN(C)CC4)ccc3[nH]2)c1-c1ccccc1,Activity,[1],87.4%
same,Activity,[2],16.9%
same,microsomal CLint,[3],20.9 µL/min/mg
same,Activity,[4],4.78%
same,clearance,[5],24.3 mL/min/kg
same,IC50,[6],15 nM
same,Activity,[7],48.2%
same,GI50,[8],361 nM
same,Activity,[9],18.26%
same,bioavailability,[10],111%
same,CLint scaled,[11],6.64 mL/min/kg
